The source of these data is patent publication US5770407A, “Process for preparing nucleotide inhibitors of glycosyltransferases” (The Scripps Research Institute, priority 1996, dated 1998).

Assay [1] deals with β 1,4-galactosyltransferase. To be noted: previous observation, Wong 1992; Srivastava 1993; cited from earlier work.
The test system of assay [2] is β 1,4-galactosyltransferase. The assay is described as follows: Inhibition study of β-1,4-galactosyltransferase (UDP-[3H]Gal transfer to N-acetylglucosamine). It counts as biochemical, bovine milk. The following applies: for mode of inhibition of β-1,4-galactosyltransferase: HEPES 100 mM, pH 7.4. The method, then: All assays contained 10 mM of MnCl2, 2 mM of UDP-[^3 H]Gal, 5 μL of 0.125 mg/mL galactosyltransferase, 0.5-4 mM of N-acetylglucosamine, 0-0.05 mM of 1, and 100 mM of HEPES buffer (pH 7.4) in a total assay volume of 0.05 mL. Assay was performed at 25° C. Reactions were halted with the addition of 0.3 mL of distilled, de-ionized water after 10 min. The reaction mixtures were passed through a pipette column (2 cm) of Sepadex QAE A-25 with 1 mL of distilled, de-ionized water. The obtained fractions were collected in 10 mL of ScintiVerse I scintillation cocktail. A control reaction without enzyme was used to establish the background, non-enzymatic cleavage rate. A typical control reaction of 41754 cpm UDP-[^3 H]Gal would result in 890 cpm of non-enzymatic column flow through.

The target of assay [3] is T1, α-1,3-fucosyltransferase V (Homo sapiens, UniProt Q11128).
T1 construct: made in house
T1 sequence (Q11128 1-374): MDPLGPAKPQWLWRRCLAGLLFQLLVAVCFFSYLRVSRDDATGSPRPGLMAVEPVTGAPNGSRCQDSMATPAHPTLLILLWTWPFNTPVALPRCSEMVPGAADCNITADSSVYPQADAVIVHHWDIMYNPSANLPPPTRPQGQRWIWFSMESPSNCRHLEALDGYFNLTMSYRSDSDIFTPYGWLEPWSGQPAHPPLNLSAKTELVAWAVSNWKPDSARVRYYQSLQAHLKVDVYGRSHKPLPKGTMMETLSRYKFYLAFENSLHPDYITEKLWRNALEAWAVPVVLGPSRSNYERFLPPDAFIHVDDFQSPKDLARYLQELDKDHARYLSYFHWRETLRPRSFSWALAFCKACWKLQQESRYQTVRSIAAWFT
In words: Inhibition of α-1,3-fucosyltransferase V (FucT V), GDP-Fuc varied at fixed inhibitor concentrations. It counts as biochemical. To be noted: for mode of inhibition of FucT V: GDP-Fuc varied, constant LacNAc acceptor, listed as GDP-2F-Fuc. As to the method: GDP-Fuc concentration was varied ([…]) and the acceptor sugar, LacNAc-b-O--(CH2)5 CO2 CH3, was kept at twice its km level, 0.6 mM. (Inset) A replot of the slopes as a function of GDP-2F-Fuc concentration is presented as a graphical Ki determination (Ki =x axis intercept).
(§1) The interaction of GDP-2F-Fuc with FucT V was evaluated. The mode of inhibition of FucT V by GDP-2F-Fuc was evaluated by varying the GDP-Fuc concentrations at fixed GDP-2F-Fuc concentrations at a constant LacNAc-b-O--(CH2)5 CO2 CH3 concentration. […] Pre incubation of 0.010 mM GDP-2F-Fuc with the FucT V in the presence of LacNAc-b-O--(CH2)5 CO2 CH3 and MnCl2 was performed for 0-80 minutes. The reactions were initiated with GDP-Fuc and allowed to react for 30 minutes. The percent inhibition remained constant at 58% which is expected for reversible inhibition. If GDP-2F-Fuc was either an inactivator of a slow substrate, then the inhibition would either increase or decrease as a function of time.
Anhydrous pyridine was purchased from Aldrich and used without further purification. N-Acetyllactosamine, Dowex 1-X8, MES, pyruvate kinase, lactate dehydrogenase, PEP, GDP, NADH, guanosine 5'-monophospho-morpholidate 4-morpholine-N,N'-dicyclohexylcarboxamidine salt, GDP-Fuc, and cacodylic acid were purchased from Sigma. Guanosine 5'-diphospho-[U-^14 C]-b-L-fucose was purchased from Amersham Life Science. ScintiVerseI scintillation cocktail and MnCl2.4 H2 O were purchased from Fisher Scientific Company. Protein concentrations were determined with the Coomassie protein staining reagent with albumin standards as purchased from Pierce. The scintillation counter used was the Beckman LS 3801. Fluorescence was measured on a Hitachi F2000 Fluorescence Spectrophotometer. Human a-1,3-fucosyltransferase and LacNAc-b-O--(CH2)5 CO2 CH3 were prepared according to published procedures (Murray et al.(1996) Biochemistry 35, 11183-11195.).
GDP-Fuc concentration was varied ([…]) at fixed concentrations of GDP-2F-Fuc ([…]), and the acceptor sugar, LacNAc-b-O-(CH2)5 CO2 CH3, was kept at twice its Km level, 0.6 mM. Each assay contained 0.3 munit of FucT V and 10 mM MnCl2 in a 100 mM MES buffer (pH 6.0). Reactions were 30 minutes at room temperature.

The next assay deals with T2, FucT V (Homo sapiens, UniProt Q11128).
T2 sequence (Q11128 1-374): T1 sequence (Q11128 1-374)
In words: Pre-incubation of GDP-2F-Fuc with FucT V (slow substrate / inactivator test). It counts as biochemical. The method, then: as §1
A 0.350 mL solution that contained 10 mM MnCl2 , 2.1 munits FucT V, 0.30 mM LacNAc-b-O--(CH2)5 CO2 CH3, 0.010 mM GDP-2F-Fuc, and 100 mM MES (pH 6.0). This solution was subject to incubation at room temperature for various time periods (0, 3, 10, 20, 30, 60, 80 min). After the incubation time, a 0.050 mL aliquot was removed and GDP-[U-^14 C]-fucose was added to a final concentration of 0.050 mM to initiate the fucosyltransfer reaction. After a 30 minute reaction time period, the solution was passed through a Dowex 1 column and the amount of product determined.

The test system of assay [4] is β 1,4-galactosyltransferase. The following applies: literature: Morrison, Ebner J. Biol. Chem. 1971; read-out: Km of GlcNAc (lit); cited from earlier work.

Entries after “also recorded” stand apart in the source; their conditions may differ. Like-named read-outs stand apart in the source and are kept apart here.

`O=c1ccn([C@@H]2O[C@H](COP(=O)(O)OP(=O)(O)O[C@@H]3C[C@@H](O)[C@@H](O)[C@@H](CO)O3)[C@@H](O)[C@H]2O)c(=O)[nH]1` [2-deoxy derivative]: the “substrate quality for the transferase” value in assay [1] was “good substrate”.

Regarding `O=c1ccn([C@@H]2O[C@H](COP(=O)(O)OP(=O)(O)O[C@H]3O[C@H](CO)[C@H](O)[C@H](O)[C@H]3F)[C@@H](O)[C@H]2O)c(=O)[nH]1` [Compound 1, Uridine 5'-diphospho-2-deoxy-2-fluoro-α-D-galactose], the “mode of inhibition of β-1,4-galactosyltransferase” value is “competitive inhibitor” in assay [2]; “potent competitive inhibitor” in assay [2] (listed as UDP-2F-Gal, 1); “competitive inhibitor” in assay [2] (listed as UDP-2FGal); “competitive inhibition” in assay [2] (listed as UDP-2FGal 1). The same molecule had a Ki in assay [2] (competitive inhibition, UDP-Gal, GlcNAc, Mn2+ 10 mM, HEPES 100 mM pH 7.4, 25° C.) of 41 µM.

In the case of `C[C@@H]1O[C@H](OP(=O)(O)OP(=O)(O)OC[C@H]2O[C@@H](n3cnc4c(=O)[nH]c(N)nc43)[C@H](O)[C@@H]2O)[C@@H](F)[C@H](O)[C@@H]1O` [Compound 21, Guanosine 5'-diphospho-2-deoxy-2-fluoro-β-L-fucose], the “mode of inhibition of FucT V” value in assay [3] is recorded as “potent competitive inhibitor; also recorded: competitive inhibition pattern”; in assay [3] (21), “potent competitive inhibitor”. Moreover, the “relative potency as FucT V inhibitor” value in assay [3] (compared with inhibitors known to date) is on record as “most potent inhibitor of this enzyme to date”. Further, the Ki in assay [3] (α-1,3-fucosyltransferase V, summary and description) was 4.2 µM. On FucT V (0.010 mM GDP-2F-Fuc, pre-incubation 0-80 minutes, 30 minutes reaction, remained constant), the “percent inhibition after pre-incubation” value is given as 58%. For the same molecule, the “effect of pre-incubation on the potency of inhibition” value at FucT V (incubation with FucT V and acceptor prior to GDP-Fuc) is on record as “no effect”. Also, the “slow substrate or inactivator behaviour” value on FucT V (pre-incubation with FucT V, acceptor and MnCl2 before GDP-Fuc, listed as GDP-2F-Fuc) is “not a slow substrate or an inactivator; also recorded: neither an inactivator nor a slow substrate”.

Regarding `CC(=O)N[C@H]1C(O)O[C@H](CO)[C@@H](O)[C@@H]1O` (stereo partly shown) [GlcNAc, N-acetylglucosamine, reference compound], in assay [2] (acceptor GlcNAc, HEPES pH 7.4), the Vmax was determined as 0.14 ± 0.01 µmol/min. For the same molecule, the Km was 5.3 ± 0.5 mM in assay [2] (β 1,4-galactosyltransferase, HEPES pH 7.4, read-out: Km of GlcNAc) and 6 mM in assay [4].
